Experiments:
[1] = tested on: cells for which cereblon was knocked out; experiment: Viability in cereblon knock-out cells; format: cell-based
From the text: X-axis axis represents m concentration of compound 8; y-axis represents viability normalized to DMSO.

[2] = target: GSPT1 (Homo sapiens, UniProt P15170+Q96SW2); experiment: GSPT1 degradation by compound 210 in NSCLC cells; format: cell-based; set-up: endogenous in cells
Method: GSPT1 was degraded by compound 210 after six hours of treatment in high N-Myc NCI-H1155 and ABC-1 cells with a DC50 of 3 nM and 22 nM, respectively (x-axis represents M concentration of compound 210; y-axis represents the viability in %).

[3] = tested on: DOHH2 lymphoma cell line derived xenograft; experiment: DOHH2 lymphoma CDX efficacy study; format: in vivo, immunodeficient mice; conditions: oral daily 3 mg/kg and 10 mg/kg
Method: Additionally, cell line derived xenograft (CDX) models were produced for lymphoma cell line (DOHH2) in immunodeficient mice. Oral dosing of Compound 345 was performed daily at doses of 3 mg/kg and 10 mg/kg as well as the CHOP combination (a well-known lymphoma treatment regimen) and a no-drug vehicle control. Tumor volumes were measured (mm^3) at regular intervals over the course of up to 30 days depending on the animal.
In vivo efficacy study: NCI-H1155, MM1 S, WSU-DLCL2, DOHH-2 cells were maintained in vitro in individual medium and conditions as recommended by the providers and incubated at 37° C. in an atmosphere of 5% CO2 in air. 0.5 million (NCI-H1155), 10 million (MM1S) or 5 million (WSU-DLCL2 and DOHH-2) cells were resuspended in typically 0.1-0.2 mL of PBS with Matrigel (50:50) and were inoculated into 6-8 weeks old BALB/c nude female (NCI-H115, WSU-DLCL2), NOD/SCID (MM1S) or CB-17SCID (DOHH-2) mice and allowed to grow to 150-200 mm3 in size. […] Tumor volumes were measured at least twice weekly during the treatment period using a caliper and the volume was expressed in mm3 using the formula: V=0.5 a×b2 where a and b were the long and short diameters of the tumor, respectively. […] Data are expressed as the mean±SEM. All data was analyzed using GraphPad Prism 8.1.2 (GraphPad).

Sequence of GSPT1 (P15170 whole entry): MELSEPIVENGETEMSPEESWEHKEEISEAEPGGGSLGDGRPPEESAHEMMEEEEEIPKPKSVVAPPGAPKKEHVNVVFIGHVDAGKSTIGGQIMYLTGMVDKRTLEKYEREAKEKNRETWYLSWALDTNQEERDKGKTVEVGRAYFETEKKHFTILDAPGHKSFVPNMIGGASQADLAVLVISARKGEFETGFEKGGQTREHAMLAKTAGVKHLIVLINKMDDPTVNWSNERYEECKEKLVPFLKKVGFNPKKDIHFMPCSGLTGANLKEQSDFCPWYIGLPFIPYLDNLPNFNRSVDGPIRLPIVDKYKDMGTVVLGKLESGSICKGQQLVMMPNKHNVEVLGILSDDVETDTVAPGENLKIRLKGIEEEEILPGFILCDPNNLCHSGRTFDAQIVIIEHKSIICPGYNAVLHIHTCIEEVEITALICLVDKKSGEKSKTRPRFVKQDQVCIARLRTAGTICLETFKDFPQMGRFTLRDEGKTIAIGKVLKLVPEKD
Sequence of GSPT1 (Q96SW2 whole entry): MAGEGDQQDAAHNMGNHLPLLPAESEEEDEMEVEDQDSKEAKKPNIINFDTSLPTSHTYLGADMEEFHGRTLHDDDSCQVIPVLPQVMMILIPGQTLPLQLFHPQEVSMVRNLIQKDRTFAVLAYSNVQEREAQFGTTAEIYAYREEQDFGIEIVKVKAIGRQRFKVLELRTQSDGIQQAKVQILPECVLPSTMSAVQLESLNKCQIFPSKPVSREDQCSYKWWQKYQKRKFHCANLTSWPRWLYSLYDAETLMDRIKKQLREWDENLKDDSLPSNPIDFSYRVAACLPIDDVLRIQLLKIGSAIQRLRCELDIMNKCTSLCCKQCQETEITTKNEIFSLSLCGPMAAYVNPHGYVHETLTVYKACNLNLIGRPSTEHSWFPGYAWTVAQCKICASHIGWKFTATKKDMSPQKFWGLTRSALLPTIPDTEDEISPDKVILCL
Sequence of GSPT1 (Q16531 whole entry partner): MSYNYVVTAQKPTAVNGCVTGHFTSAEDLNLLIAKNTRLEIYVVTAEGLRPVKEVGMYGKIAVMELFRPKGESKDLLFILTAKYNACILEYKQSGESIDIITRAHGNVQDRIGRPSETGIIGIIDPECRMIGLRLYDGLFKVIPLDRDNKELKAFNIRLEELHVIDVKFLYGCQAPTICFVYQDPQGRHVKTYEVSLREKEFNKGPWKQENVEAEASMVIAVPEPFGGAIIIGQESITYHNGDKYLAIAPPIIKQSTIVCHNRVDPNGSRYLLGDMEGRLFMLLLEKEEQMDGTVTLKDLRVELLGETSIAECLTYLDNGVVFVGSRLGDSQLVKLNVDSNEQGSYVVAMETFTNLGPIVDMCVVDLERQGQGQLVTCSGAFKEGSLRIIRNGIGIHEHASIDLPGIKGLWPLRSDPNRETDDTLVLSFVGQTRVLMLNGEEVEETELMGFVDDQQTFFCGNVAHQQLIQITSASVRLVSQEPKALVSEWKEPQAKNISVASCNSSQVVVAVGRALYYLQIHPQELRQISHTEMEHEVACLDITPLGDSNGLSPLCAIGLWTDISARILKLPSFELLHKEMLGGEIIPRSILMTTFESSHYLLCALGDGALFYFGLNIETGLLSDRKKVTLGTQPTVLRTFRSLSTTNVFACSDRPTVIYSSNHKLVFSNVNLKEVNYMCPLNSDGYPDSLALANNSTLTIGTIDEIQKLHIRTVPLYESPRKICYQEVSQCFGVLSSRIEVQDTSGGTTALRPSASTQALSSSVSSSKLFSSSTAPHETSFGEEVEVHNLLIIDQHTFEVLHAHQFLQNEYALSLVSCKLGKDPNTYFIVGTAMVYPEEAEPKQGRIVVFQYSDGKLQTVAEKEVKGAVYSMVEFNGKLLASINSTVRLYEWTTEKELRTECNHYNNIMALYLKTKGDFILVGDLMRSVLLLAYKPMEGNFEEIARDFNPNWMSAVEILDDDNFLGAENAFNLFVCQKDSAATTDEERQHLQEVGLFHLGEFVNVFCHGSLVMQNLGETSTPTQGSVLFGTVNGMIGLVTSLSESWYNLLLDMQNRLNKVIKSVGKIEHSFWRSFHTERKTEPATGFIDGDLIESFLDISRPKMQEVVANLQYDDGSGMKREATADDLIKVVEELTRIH

In the case of `Cc1ccc(NC(=O)NCc2ccc3c(c2)C(=O)N(C2CCC(=O)NC2=O)C3)cc1Cl` (stereo not shown) [Compound 8], the “induction of death (viability normalized to DMSO)” value [1] was “did not induce death”.

`Cc1ccc(NC(=O)OCc2ccc3c(c2)C(=O)N(C2CCC(=O)NC2=O)C3)cc1Cl` (stereo not shown) [Compound 210] was tested, and the “relative levels of GSPT1 versus concentration” value [2] was “degrades GSPT1 in a concentration dependent manner” and the “extent of GSPT1 degradation” value ([2]; NCI-H1155 and ABC-1 cells) was “complete degradation of GSPT1”.

With `O=C1CCC(N2Cc3ccc(COC(=O)Nc4cc(OC(F)(F)F)ccc4F)cc3C2=O)C(=O)N1` (stereo not shown) [Compound 345, (2-(2,6-dioxopiperidin-3-yl)-3-oxoisoindolin-5-yl)methyl(2-fluoro-5-(trifluoromethoxy)phenyl)carbamate] the tumor volume [3] was “anti-tumor activity”.

Source: US20240261274A1, “TREATMENT OF MYC-DRIVEN CANCERS WITH GSPT1 DEGRADERS” (MONTE ROSA THERAPEUTICS, INC., priority 2021, published 2024)
